From patent US12083101B2, “Biaryl derivatives as YAP/TAZ-TEAD protein-protein interaction inhibitors” (Novartis AG, priority 2020, dated 2024) come the findings set out here.

Bounds are passed on as bounds.

Broadly, the IC50 is the concentration that inhibits the measured activity by half. Read a low IC50 as higher potency.

This test deals with Avi-humanTEAD4 217-434 / Cy5 labeled humanYAP 60-100 (Homo sapiens (Human), UniProt Q15561). Description: TR-FRET YAP-TEAD4 in-vitro biochemical assay. In kind it is binding. The following applies: 1 nM Avi-humanTEAD4 217-434, 20 nM Cy5-humanYAP 60-100, 1 h room temperature. How it is done: N-terminus Cy5 labeled humanYAP^60-100 (20 nM) was then added to this preparation. Compounds were dissolved at 10 mM in 100% DMSO and serial dilutions were made in 100% DMSO. The diluted compound solutions were incubated in white 384-well plates (Greiner Bio-One) for 1 h at room temperature with the above described mix. The final DMSO concentration present in the assay was 1%. […] The IC50 values were estimated by fitting the data by nonlinear fit regression (GraphPad Prism).
Sequence of Avi-humanTEAD4 217-434 / Cy5 labeled humanYAP 60-100 (Q15561 217-434): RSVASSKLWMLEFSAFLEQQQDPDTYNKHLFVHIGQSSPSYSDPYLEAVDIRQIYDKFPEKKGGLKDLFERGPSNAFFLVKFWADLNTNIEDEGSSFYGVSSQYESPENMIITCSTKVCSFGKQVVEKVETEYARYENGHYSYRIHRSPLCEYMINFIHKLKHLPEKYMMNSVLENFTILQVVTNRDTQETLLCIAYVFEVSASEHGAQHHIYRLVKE
(Time-resolved FRET reads energy transfer from a long-lived donor to a nearby acceptor.)
With `NC[C@]1(c2ccccc2)Oc2ccc(Cl)c(-c3c(C(N)=O)ccc(OC(F)F)c3F)c2[C@@H]1O` (atropisomer, axis not shown) [Example 87, 2-((2S,3S,4S)-2-(aminomethyl)-5-chloro-3-hydroxy-2-phenyl-2,3-dihydrobenzofuran-4-yl)-4-(difluoromethoxy)-3-fluorobenzamide], the midpoint of inhibition, the IC50, lay at 30 nM.

Molecule `COc1ccc(C(N)=O)c(-c2c(Cl)ccc3c2[C@H](O)[C@@](CN)(c2ccc[nH]c2=O)O3)c1F` (atropisomer, axis not shown) [Example 92, 2-((2S,3S,4S)-2-(Aminomethyl)-5-chloro-3-hydroxy-2-(2-oxo-1,2-dihydropyridin-3-yl)-2,3-dihydrobenzofuran-4-yl)-3-fluoro-4-methoxybenzamide] registered an IC50 of 22 nM.

`COc1ccc(C(N)=O)c(-c2c(Cl)ccc3c2[C@H](O)[C@@](CN)(c2ccccc2OC(F)(F)F)O3)c1F` (atropisomer, axis not shown) [Example 93, 2-((2S,3S,4S)-2-(Aminomethyl)-5-chloro-3-hydroxy-2-(2-(trifluoromethoxy)phenyl)-2,3-dihydrobenzofuran-4-yl)-3-fluoro-4-methoxybenzamide] gave a half-maximal inhibitory concentration (IC50) of 9 nM.

On to `NC[C@]1(c2ccccc2)Oc2cc(F)c(Cl)c(-c3c(C(N)=O)ccc(OCCO)c3F)c2[C@@H]1O` (atropisomer, axis not shown) [Example 98, 2-((2S,3S,4S)-2-(Aminomethyl)-5-chloro-6-fluoro-3-hydroxy-2-phenyl-2,3-dihydrobenzofuran-4-yl)-3-fluoro-4-(2-hydroxyethoxy)benzamide], for which 5 nM corresponded to half-maximal inhibition (IC50).

The molecule `C[C@H]1c2c(cc(F)c(Cl)c2-c2c(C(N)=O)ccc(OC(F)F)c2F)O[C@]1(CN)c1ccccc1` (atropisomer, axis not shown) [Example 105, 2-((2S,3S,4S)-2-(Aminomethyl)-5-chloro-6-fluoro-3-methyl-2-phenyl-2,3-dihydrobenzofuran-4-yl)-4-(difluoromethoxy)-3-fluorobenzamide] registered an IC50 of 2 nM.

As to `C[C@H]1c2c(cc(F)c(Cl)c2-c2c(C(N)=O)ccc(OCCO)c2F)O[C@]1(CN)c1ccccc1` (atropisomer, axis not shown) [Example 107, 2-((2S,3S,4S)-2-(aminomethyl)-5-chloro-6-fluoro-3-methyl-2-phenyl-2,3-dihydrobenzofuran-4-yl)-3-fluoro-4-(2-hydroxyethoxy)benzamide], the IC50 came out at 2 nM.

Turning to `COCCOc1ncc(C(N)=O)c(-c2c(Cl)c(F)cc3c2[C@H](C)[C@@](CN)(c2ccccc2)O3)c1F` (atropisomer, axis not shown) [Example 108, 4-((2S,3S,4S)-2-(aminomethyl)-5-chloro-6-fluoro-3-methyl-2-phenyl-2,3-dihydrobenzofuran-4-yl)-5-fluoro-6-(2-methoxyethoxy)nicotinamide], the IC50 came out at 2 nM.

Molecule `CNC[C@]1(c2ccccn2)Oc2cc(F)c(Cl)c(-c3c(C(N)=O)ccc(OCCOC)c3F)c2[C@@H]1C` (atropisomer, axis not shown) [Example 111, 2-((2R,3S,4S)-5-chloro-6-fluoro-3-methyl-2-((methylamino)methyl)-2-(pyridin-2-yl)-2,3-dihydrobenzofuran-4-yl)-3-fluoro-4-(2-methoxyethoxy)benzamide] gave an IC50 of 4 nM.

`CNC[C@]1(c2ccccn2)Oc2cc(F)c(Cl)c(-c3c(C(N)=O)ccc(OCCO)c3F)c2[C@@H]1C` (atropisomer, axis not shown) [Example 112, 2-((2R,3S,4S)-5-chloro-6-fluoro-3-methyl-2-((methylamino)methyl)-2-(pyridin-2-yl)-2,3-dihydrobenzofuran-4-yl)-3-fluoro-4-(2-hydroxyethoxy)benzamide] showed an IC50 of 1 nM.

Regarding `C[C@H]1c2c(cc(F)c(Cl)c2-c2c(C(N)=O)ccc(OC(F)F)c2F)O[C@]1(CN[C@H]1CC[C@H](O)CC1)c1ccccc1` (atropisomer, axis not shown) [Example 115a, 2-((2S,3S,4S)-5-chloro-6-fluoro-2-((((trans)-4-hydroxycyclohexyl)amino)methyl)-3-methyl-2-phenyl-2,3-dihydrobenzofuran-4-yl)-4-(difluoromethoxy)-3-fluorobenzamide], half-maximal inhibition (IC50) was put at 2 nM.

With `C[C@H]1c2c(cc(F)c(Cl)c2-c2c(C(N)=O)ccc(OC(F)F)c2F)O[C@]1(CN[C@H]1CC[C@@H](O)CC1)c1ccccc1` (atropisomer, axis not shown) [Example 115b, 2-((2S,3S,4S)-5-chloro-6-fluoro-2-((((cis)-4-hydroxycyclohexyl)amino)methyl)-3-methyl-2-phenyl-2,3-dihydrobenzofuran-4-yl)-4-(difluoromethoxy)-3-fluorobenzamide], the half-maximal inhibitory concentration (IC50) is 2 nM.

For the molecule `COCCOc1ccc(C(N)=O)c(-c2c(Cl)c(F)cc3c2[C@H](C)[C@@](CN[C@H]2CC[C@](C)(O)CC2)(c2ccccc2)O3)c1F` (atropisomer, axis not shown) [Example 116a, 2-((25,35,4S)-5-chioro-6-fluoro-2-((((trans)-4-hydroxy-4-methylcyclohexyl)amino)methyl)-3-methyl-2-phenyl-2,3-dihydrobenzofuran-4-yl)-3-fluoro-4-(2-methoxyethoxy)benzamide], the IC50 was under 1 nM.

In turn, `COCCOc1ccc(C(N)=O)c(-c2c(Cl)c(F)cc3c2[C@H](C)[C@@](CN[C@H]2CC[C@@](C)(O)CC2)(c2ccccc2)O3)c1F` (atropisomer, axis not shown) [Example 116b, 2-((2S,3S,4S)-5-chloro-6-fluoro-2-((((cis)-4-hydroxy-4-methylcyclohexyl)amino)methyl)-3-methyl-2-phenyl-2,3-dihydrobenzofuran-4-yl)-3-fluoro-4-(2-methoxyethoxy)benzamide] displayed an IC50 of 1 nM.

The molecule `NC[C@@]1(c2ccccc2)Cc2c(ncc(Cl)c2-c2c(F)cccc2C(N)=O)O1` (atropisomer, axis not shown) [Example 131, 2-((2S,4S)-2-(Aminomethyl)-5-chloro-2-phenyl-2,3-dihydrofuro[2,3-b]pyridin-4-yl)-3-fluorobenzamide] registered an IC50 of 1290 nM.

`COc1ccc(C(N)=O)c(-c2c(Cl)ccc3c2[C@H](O)[C@@](CN[C@H]2CC[C@H](O)CC2)(c2ccccn2)O3)c1F` (relative stereo) [Example 95a, 2-((2R,3S,4S)-5-Chloro-3-hydroxy-2-((((trans)-4-hydroxycyclohexyl)amino)methyl)-2-(pyridin-2-yl)-2,3-dihydrobenzofuran-4-yl)-3-fluoro-4-methoxybenzamide]: the IC50 amounted to 8 nM.

`COc1ccc(C(N)=O)c(-c2c(Cl)ccc3c2[C@H](O)[C@@](CN[C@H]2CC[C@@H](O)CC2)(c2ccccn2)O3)c1F` (relative stereo) [Example 95b, 2-((2R,3S,4S)-5-chloro-3-hydroxy-2-((((cis)-4-hydroxycyclohexyl)amino)methyl)-2-(pyridin-2-yl)-2,3-dihydrobenzofuran-4-yl)-3-fluoro-4-methoxybenzamide] showed an IC50 of 7 nM.

Turning to `NC(=O)c1ccc(OC(F)F)c(F)c1-c1c(Cl)c(F)cc2c1[C@H](O)[C@@](CN[C@H]1CC[C@H](O)CC1)(c1ccccc1)O2` (relative stereo) [Example 100a, 2-((2S,3S,4S)-5-Chloro-6-fluoro-3-hydroxy-2-((((trans)-4-hydroxycyclohexyl)amino)methyl)-2-phenyl-2,3-dihydrobenzofuran-4-yl)-4-(difluoromethoxy)-3-fluorobenzamide], the IC50 came to 2 nM.

In turn, `NC(=O)c1ccc(OC(F)F)c(F)c1-c1c(Cl)c(F)cc2c1[C@H](O)[C@@](CN[C@H]1CC[C@@H](O)CC1)(c1ccccc1)O2` (relative stereo) [Example 100b, 2-((2S,3S,4S)-5-chloro-6-fluoro-3-hydroxy-2-((((cis)-4-hydroxycyclohexyl)amino)methyl)-2-phenyl-2,3-dihydrobenzofuran-4-yl)-4-(difluoromethoxy)-3-fluorobenzamide] displayed an IC50 of 5 nM.

On to `CO[C@H]1c2c(cc(F)c(Cl)c2-c2c(C(N)=O)ccc(OC(F)F)c2F)O[C@]1(CN[C@H]1CC[C@H](O)CC1)c1ccccc1` (relative stereo) [Example 102a, 2-((2S,3S,4S)-5-Chloro-6-fluoro-2-((((trans)-4-hydroxycyclohexyl)amino)methyl)-3-methoxy-2-phenyl-2,3-dihydrobenzofuran-4-yl)-4-(difluoromethoxy)-3-fluorobenzamide], for which the IC50 came to 3 nM.

The molecule `CO[C@H]1c2c(cc(F)c(Cl)c2-c2c(C(N)=O)ccc(OC(F)F)c2F)O[C@]1(CN[C@H]1CC[C@@H](O)CC1)c1ccccc1` (relative stereo) [Example 102b, 2-((2S,3S,4S)-5-chloro-6-fluoro-2-((((cis)-4-hydroxycyclohexyl)amino)methyl)-3-methoxy-2-phenyl-2,3-dihydrobenzofuran-4-yl)-4-(difluoromethoxy)-3-fluorobenzamide] came in with an IC50 of 4 nM.

`CO[C@H]1CC[C@@H](NC[C@]2(c3ccccc3)Oc3cc(F)c(Cl)c(-c4c(C(N)=O)ccc(OC(F)F)c4F)c3[C@@H]2O)CC1` (relative stereo) [Example 136a, 2-((2S,3S,4S)-5-Chloro-6-fluoro-3-hydroxy-2-((((cis)-4-methoxycyclohexyl)amino)methyl)-2-phenyl-2,3-dihydrobenzofuran-4-yl)-4-(difluoromethoxy)-3-fluorobenzamide] showed an IC50 of 7 nM.

The molecule `CO[C@H]1CC[C@H](NC[C@]2(c3ccccc3)Oc3cc(F)c(Cl)c(-c4c(C(N)=O)ccc(OC(F)F)c4F)c3[C@@H]2O)CC1` (relative stereo) [Example 136b, 2-((2S,3S,4S)-5-chloro-6-fluoro-3-hydroxy-2-((((trans)-4-methoxycyclohexyl)amino)methyl)-2-phenyl-2,3-dihydrobenzofuran-4-yl)-4-(difluoromethoxy)-3-fluorobenzamide] gave an IC50 of 7 nM.
